Measurements taken from ChEMBL document CHEMBL1201862, “PubChem BioAssay data set” (2004).
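A five-concentration, 48-hour dose response in 96-well plates underlies each endpoint, interpolated linearly between surrounding concentrations. GI50 marks 50% less growth.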 Active and inactive are the calls of the source. No stated cut-off is given here; in the data, active = GI50 up to about 1.1 µM and inactive = higher.

Experiments:
Assay in all cases: growth of human tumour cells (NCI), 48 h
[1] = tested on: 786-0
[2] = tested on: A498
[3] = tested on: A549
[4] = tested on: ACHN
[5] = tested on: BT-549
[6] = tested on: CAKI-1
[7] = tested on: CCRF-CEM
[8] = tested on: COLO 205
[9] = tested on: DU-145
[10] = tested on: EKVX
[11] = tested on: HCC 2998
[12] = tested on: HCT-116
[13] = tested on: HCT-15
[14] = tested on: HL-60
[15] = tested on: HOP-62
[16] = tested on: HOP-92
[17] = tested on: HT-29
[18] = tested on: Hs-578T
[19] = tested on: IGROV-1
[20] = tested on: K562
[21] = tested on: KM12
[22] = tested on: LOX IMVI
[23] = tested on: M14
[24] = tested on: MCF7
[25] = tested on: MDA-MB-231
[26] = tested on: MDA-MB-435
[27] = tested on: MDA-N
[28] = tested on: MOLT-4
[29] = tested on: Malme-3M
[30] = tested on: NCI-H226
[31] = tested on: NCI-H23
[32] = tested on: NCI-H460
[33] = tested on: NCI-H522
[34] = tested on: NCI/ADR-RES
[35] = tested on: OVCAR-3
[36] = tested on: OVCAR-5
[37] = tested on: OVCAR-8
[38] = tested on: PC-3
[39] = tested on: RPMI-8226
[40] = tested on: RXF 393
[41] = tested on: SF-268
[42] = tested on: SF-295
[43] = tested on: SF-539
[44] = tested on: SK-MEL-28
[45] = tested on: SK-MEL-2
[46] = tested on: SK-MEL-5
[47] = tested on: SK-OV-3
[48] = tested on: SN12C
[49] = tested on: SNB-19
[50] = tested on: SNB-75
[51] = tested on: SR
[52] = tested on: SW-620
[53] = tested on: T47D
[54] = tested on: TK-10
[55] = tested on: U-251
[56] = tested on: UACC-257
[57] = tested on: UACC-62
[58] = tested on: UO-31
[59] = tested on: OVCAR-4

In the case of C(=C/c1nnnn1-c1ccccc1)/Nc1ccccc1, the GI50 [1] is reported as 39.2 µM (inactive), the GI50 [2] is reported as > 100 µM (inactive) and the GI50 [3] is reported as 52.4 µM (inactive). For the same compound, the GI50 [4] was 28.1 µM (inactive), the GI50 [5] was 17.4 µM (inactive) and the GI50 [6] was 43 µM (inactive). The GI50 [7] was 25.5 µM (inactive), the GI50 [8] was 33.7 µM (inactive) and the GI50 [9] was 24.7 µM (inactive). For the same compound, the GI50 [10] was 40.6 µM (inactive), the GI50 [11] was 21.7 µM (inactive) and the GI50 [12] was 31.9 µM (inactive). For the same compound, the GI50 [13] was 21.5 µM, the GI50 [14] was 41.2 µM (inactive) and the GI50 [15] was 25.4 µM (inactive). For the same compound, the GI50 [16] was 24.4 µM (inactive), the GI50 [17] was 28.2 µM (inactive) and the GI50 [18] was 31.8 µM (inactive). The GI50 [19] was 35.2 µM (inactive), the GI50 [20] was 20.7 µM (inactive) and the GI50 [21] was 31.6 µM (inactive). The GI50 [22] was 28.1 µM (inactive), the GI50 [23] was 26.1 µM (inactive) and the GI50 [24] was 19.3 µM (inactive). The GI50 [25] was 39 µM (inactive), the GI50 [26] was 26.1 µM (inactive) and the GI50 [27] was 22 µM (inactive). The GI50 [28] was 21.7 µM (inactive), the GI50 [29] was 31.4 µM (inactive) and the GI50 [30] was 19.1 µM (inactive). The GI50 [31] was 23.7 µM (inactive), the GI50 [32] was 49.8 µM (inactive) and the GI50 [33] was 20.8 µM (inactive). For the same compound, the GI50 [34] was 24.6 µM (inactive), the GI50 [35] was 27.2 µM (inactive) and the GI50 [36] was 24.8 µM (inactive). For the same compound, the GI50 [37] was 29.5 µM (inactive), the GI50 [38] was 27.2 µM (inactive) and the GI50 [39] was 31 µM (inactive). The GI50 [40] was 53 µM (inactive), the GI50 [41] was 31.7 µM (inactive) and the GI50 [42] was 26.2 µM (inactive). The GI50 [43] was 23.3 µM (inactive), the GI50 [44] was 78.7 µM (inactive) and the GI50 [45] was 2.64 µM (inactive). For the same compound, the GI50 [46] was 14.5 µM (inactive), the GI50 [47] was 36.2 µM (inactive) and the GI50 [48] was 30.8 µM (inactive). The GI50 [49] was 26.7 µM (inactive), the GI50 [50] was 27.5 µM (inactive) and the GI50 [51] was > 10 µM (inactive). The GI50 [52] was 37.3 µM (inactive), the GI50 [53] was 29.6 µM (inactive) and the GI50 [54] was 34.4 µM (inactive). The GI50 [55] was 27.9 µM (inactive), the GI50 [56] was 36.5 µM (inactive) and the GI50 [57] was 20.2 µM (inactive). The GI50 [58] was 20.6 µM (inactive).
With CC1=C(C(=O)OCCO[N+](=O)[O-])C(c2ccccc2[N+](=O)[O-])C(C(=O)OC(C)C)=C(C)N1 (stereo not drawn) the GI50 [1] was 16.6 µM (inactive), the GI50 [2] was 20.7 µM (inactive) and the GI50 [3] was 16.3 µM (inactive). The GI50 [4] was 13.1 µM (inactive), the GI50 [5] was 16.5 µM (inactive) and the GI50 [6] was 17 µM (inactive). The GI50 [7] was 33.2 µM (inactive), the GI50 [8] was 15.1 µM (inactive) and the GI50 [9] was 20.7 µM (inactive). For the same compound, the GI50 [10] was 18.3 µM (inactive), the GI50 [11] was 16 µM (inactive) and the GI50 [12] was 15.4 µM (inactive). The GI50 [13] was 16.6 µM, the GI50 [14] was 39.3 µM (inactive) and the GI50 [15] was 18.2 µM (inactive). The GI50 [16] was 14.5 µM (inactive), the GI50 [17] was 15.7 µM (inactive) and the GI50 [18] was 14.8 µM (inactive). The GI50 [19] was 15.6 µM (inactive), the GI50 [20] was 49.1 µM (inactive) and the GI50 [21] was 13.8 µM (inactive). For the same compound, the GI50 [22] was 17.7 µM (inactive), the GI50 [23] was 15.8 µM (inactive) and the GI50 [24] was 19.9 µM (inactive). The GI50 [25] was 15.6 µM (inactive), the GI50 [26] was 15 µM (inactive) and the GI50 [27] was 17.2 µM (inactive). The GI50 [28] was 40.9 µM (inactive), the GI50 [29] was 17.3 µM (inactive) and the GI50 [30] was 14 µM (inactive). The GI50 [31] was 20.7 µM (inactive), the GI50 [32] was 15.5 µM (inactive) and the GI50 [33] was 16 µM (inactive). The GI50 [34] was 16.8 µM (inactive), the GI50 [35] was 13 µM (inactive) and the GI50 [59] was 18 µM (inactive). The GI50 [36] was 14.9 µM (inactive), the GI50 [37] was 22.5 µM (inactive) and the GI50 [38] was 8.17 µM (inactive). For the same compound, the GI50 [39] was 84.9 µM (inactive), the GI50 [40] was 14.3 µM (inactive) and the GI50 [41] was 20.4 µM (inactive). For the same compound, the GI50 [42] was 15.7 µM (inactive), the GI50 [43] was 17.7 µM (inactive) and the GI50 [44] was 16.5 µM (inactive). The GI50 [45] was 15.6 µM (inactive), the GI50 [46] was 13.9 µM (inactive) and the GI50 [47] was 21.2 µM (inactive). The GI50 [48] was 17.6 µM (inactive), the GI50 [49] was 18 µM (inactive) and the GI50 [51] was 44.9 µM (inactive). The GI50 [52] was 19.2 µM (inactive), the GI50 [53] was 13 µM (inactive) and the GI50 [54] was 21.8 µM (inactive). The GI50 [55] was 16.2 µM (inactive), the GI50 [56] was 15.3 µM (inactive) and the GI50 [57] was 14.1 µM (inactive). For the same compound, the GI50 [58] was 13.2 µM (inactive).
With COc1ccc2c3c(c(=O)n(C)c2c1OC)C=CC(C)(C)O3 the GI50 [1] was 43.1 µM (inactive), the GI50 [2] was 17.9 µM (inactive) and the GI50 [3] was 44.7 µM (inactive). The GI50 [4] was 13.7 µM (inactive), the GI50 [5] was 22.1 µM (inactive) and the GI50 [6] was 13.5 µM (inactive). The GI50 [7] was 23.2 µM (inactive), the GI50 [8] was 19.7 µM (inactive) and the GI50 [9] was 43.7 µM (inactive). The GI50 [10] was 23.9 µM (inactive), the GI50 [11] was 29.5 µM (inactive) and the GI50 [12] was 29.9 µM (inactive). For the same compound, the GI50 [13] was 13.4 µM, the GI50 [14] was 11.2 µM (inactive) and the GI50 [15] was 80.2 µM (inactive). For the same compound, the GI50 [16] was 18 µM (inactive), the GI50 [17] was 24 µM (inactive) and the GI50 [18] was 23.5 µM (inactive). For the same compound, the GI50 [19] was 36.1 µM (inactive), the GI50 [21] was 21.6 µM (inactive) and the GI50 [22] was 33.7 µM (inactive). The GI50 [23] was 48.3 µM (inactive), the GI50 [24] was 36.8 µM (inactive) and the GI50 [25] was 22 µM (inactive). For the same compound, the GI50 [26] was 38.3 µM (inactive), the GI50 [27] was 21.7 µM (inactive) and the GI50 [28] was 24.4 µM (inactive). For the same compound, the GI50 [29] was 50.4 µM (inactive), the GI50 [30] was 22.2 µM (inactive) and the GI50 [31] was 22.8 µM (inactive). The GI50 [33] was 34.5 µM (inactive), the GI50 [34] was 18 µM (inactive) and the GI50 [35] was 48 µM (inactive). The GI50 [59] was 19.1 µM (inactive), the GI50 [36] was 82 µM (inactive) and the GI50 [37] was 23.9 µM (inactive). The GI50 [38] was 33.7 µM (inactive), the GI50 [39] was 10 µM (inactive) and the GI50 [40] was 26.5 µM (inactive). The GI50 [41] was 26.8 µM (inactive), the GI50 [42] was 36.7 µM (inactive) and the GI50 [43] was 39.2 µM (inactive). The GI50 [44] was 41.9 µM (inactive), the GI50 [45] was 42.6 µM (inactive) and the GI50 [46] was 13.3 µM (inactive). For the same compound, the GI50 [47] was 32.1 µM (inactive), the GI50 [48] was 12.7 µM (inactive) and the GI50 [49] was 20.7 µM (inactive). For the same compound, the GI50 [50] was 2.78 µM (inactive), the GI50 [51] was 3.46 µM (inactive) and the GI50 [52] was 28.4 µM (inactive). The GI50 [53] was 25.8 µM (inactive), the GI50 [54] was 28.8 µM (inactive) and the GI50 [55] was 30.6 µM (inactive). The GI50 [56] was 35.3 µM (inactive), the GI50 [57] was 37.8 µM (inactive) and the GI50 [58] was 20.9 µM (inactive).
